Calls of active or inactive are those of the source. No rule for the calls is given here. A value given as a limit tells only on which side of the number the result lay.

Ubiquitin carboxyl-terminal hydrolase 8 (Homo sapiens), sequence (P40818 whole entry, looked up): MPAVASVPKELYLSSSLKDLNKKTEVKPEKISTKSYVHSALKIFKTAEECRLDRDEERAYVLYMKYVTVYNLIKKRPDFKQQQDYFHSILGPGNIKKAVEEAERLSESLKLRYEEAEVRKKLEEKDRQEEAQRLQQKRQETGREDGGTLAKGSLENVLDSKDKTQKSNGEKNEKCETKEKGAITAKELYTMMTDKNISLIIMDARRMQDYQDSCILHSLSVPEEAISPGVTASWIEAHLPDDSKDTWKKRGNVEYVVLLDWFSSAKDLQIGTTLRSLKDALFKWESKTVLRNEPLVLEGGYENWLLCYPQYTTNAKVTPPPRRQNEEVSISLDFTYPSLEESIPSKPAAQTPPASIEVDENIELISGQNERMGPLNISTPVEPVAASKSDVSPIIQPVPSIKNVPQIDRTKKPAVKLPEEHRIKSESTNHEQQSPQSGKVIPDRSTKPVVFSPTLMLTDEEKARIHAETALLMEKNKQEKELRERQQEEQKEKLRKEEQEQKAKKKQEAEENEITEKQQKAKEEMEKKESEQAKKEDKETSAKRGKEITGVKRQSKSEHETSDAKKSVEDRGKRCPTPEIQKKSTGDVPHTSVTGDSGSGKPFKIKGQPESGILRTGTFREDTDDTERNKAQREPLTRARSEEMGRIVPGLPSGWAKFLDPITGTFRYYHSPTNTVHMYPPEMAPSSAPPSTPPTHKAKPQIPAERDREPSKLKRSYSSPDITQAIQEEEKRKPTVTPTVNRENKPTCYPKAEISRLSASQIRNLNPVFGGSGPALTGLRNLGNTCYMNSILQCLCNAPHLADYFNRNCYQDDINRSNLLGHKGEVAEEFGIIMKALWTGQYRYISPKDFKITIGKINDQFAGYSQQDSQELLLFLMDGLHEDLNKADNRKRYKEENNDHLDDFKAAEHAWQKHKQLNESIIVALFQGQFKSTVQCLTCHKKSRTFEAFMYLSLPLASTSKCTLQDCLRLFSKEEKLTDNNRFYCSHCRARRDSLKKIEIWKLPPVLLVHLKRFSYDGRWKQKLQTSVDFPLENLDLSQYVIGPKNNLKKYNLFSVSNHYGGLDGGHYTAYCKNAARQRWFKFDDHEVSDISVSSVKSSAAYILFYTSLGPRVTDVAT

The assay concerns the target Ubiquitin carboxyl-terminal hydrolase 8 (Homo sapiens) (UniProt P40818). Nature of the assay: Ubiquitin-specific protease 8 inhibitors, concentration-effect, biochemical, validation of initial actives (AID 1645862).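 Also: potency reflects inhibition of USP8 cleavage of a ubiquitin rhodamine substrate.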 Conditions: recombinant USP8 deubiquitinase activity assay.
For the compound `Cc1ccc(CNC(=O)c2cccc(N3C(=O)N4CCc5c([nH]c6ccccc56)[C@@]4(C)C3=O)c2)cc1`, the IC50 – broadly, the concentration that inhibits the measured activity by half – was > 40 µM (inactive).
For `Cc1cccc(NC(=O)CSc2nnc(NC(=O)c3ccc4ccccc4c3)s2)c1`, the IC50 was > 40 µM (inactive).
With `Cc1cc(C(=O)Nc2cc([N+](=O)[O-])cc3oc(-c4ccccc4)cc23)on1`, the IC50 was > 40 µM (inactive).
For `Cc1cccc(N2CCN(C(=O)c3nc4cccnc4n(C)c3=O)CC2)c1C`, the IC50 is > 40 µM (inactive).
The result for `COC(=O)c1ccc(Nc2cc(C)nc3cc(C(F)(F)F)ccc23)cc1` reads > 40 µM (inactive); that for `O=C(Nc1cccnc1)C1c2ccccc2C(=O)N(c2ccccc2)C12CCCCC2` (centres undefined), > 40 µM (inactive); that for `O=C(CCCn1c(=O)c2sccc2n(CC(=O)NCCC2=CCCCC2)c1=O)NCc1ccc2c(c1)OCO2`, > 40 µM (inactive).
`O=C(CSc1nnc2n(-c3ccccc3)c(=O)c3ccccc3n12)c1ccc(F)cc1`: the IC50 is > 40 µM (inactive).
For the compound `O=C(CC1C(=O)Nc2nc3ccccc3n21)Nc1cccc2ccccc12` (centres undefined), the IC50 is > 40 µM (inactive).
On to `CC(NC(=O)c1ccccc1)c1nc2ccccc2n1CC(=O)Nc1ccc(F)cc1` (centres undefined), for which the IC50 was > 40 µM (inactive).
`O=C(COC(=O)C(Cc1c[nH]c2ccccc12)NC(=O)c1ccccc1Cl)Nc1ccc([N+](=O)[O-])cc1C(F)(F)F` (centres undefined): the IC50 is > 40 µM (inactive).
Turning to `Cc1cc2nc(SCC(=O)c3ccc(O)cc3)[nH]c2cc1C`, the IC50 is > 40 µM (inactive).
Take `CCOc1ccc(NC(=O)Cn2cc(C(=O)c3ccc(Cl)cc3)c(=O)c3cc(OC)ccc32)cc1`: the IC50 is > 40 µM (inactive).
With `c1ccc(CNc2ccc(-c3ccccc3)nn2)cc1`, the IC50 is > 40 µM (inactive).
The result for `COCCCn1c(C(=O)NCc2ccccc2)cc2c(=O)n3ccccc3nc21` reads > 40 µM (inactive); that for `COc1ccc2[nH]c(=O)c(CN(C)C(=O)c3ccc([N+](=O)[O-])cc3)cc2c1`, > 40 µM (inactive).
Take `Cc1ccc(-c2cc(C(F)F)n3ncc(C(=O)Nc4ccc(O)cc4)c3n2)cc1`: the IC50 is > 40 µM (inactive).
In the case of `O=C1C=C(O)c2c(O)cccc2C1=O`, the IC50 is 19 µM.
The result for `COc1cc(NS(=O)(=O)c2ccc(NC(=O)COc3ccc(C)cc3Br)cc2)nc(OC)n1` reads > 40 µM (inactive).
Regarding `O=C(Nc1ccc(-c2nc3ccccc3o2)cc1)c1ccc(S(=O)(=O)N2CCc3ccccc3C2)cc1`, the IC50 was > 40 µM (inactive).
As for `COCCCNC(=O)c1ccc(Cn2c(=O)c3ccccc3n(CC(=O)Nc3ccc(OC)cc3)c2=O)cc1`, the IC50 is > 40 µM (inactive).
For the compound `Cc1ccc(NC(=O)Nc2ccccc2OCc2cc(=O)n3cc(C)ccc3n2)cc1`, the IC50 is > 40 µM (inactive).
As to `Cc1ccc(CNC(=O)CCCn2c(=O)c3sccc3n(CC(=O)Nc3cc(Cl)ccc3C)c2=O)cc1`, the IC50 is > 40 µM (inactive).
With `Cc1noc(-c2cc(=O)n(CC(=O)NCc3ccccc3F)c3ccccc23)n1`, the IC50 was > 40 µM (inactive).
On to `O=C(NCC1(c2ccccc2)CCC1)c1nc2n(n1)-c1ccccc1S(=O)(=O)N2`, for which the IC50 is > 40 µM (inactive).
`NC(=O)c1nc(-c2cccnc2)nc2c1[nH]c(=O)n2-c1ccc2c(c1)OCO2`: the IC50 is > 40 µM (inactive).
Under `COc1ccc(NC(=O)c2cc(-c3cccnc3)n[nH]2)cc1Cl` stands > 40 µM (inactive).
For the compound `Cn1cc(NC(=O)Nc2cccc3ccccc23)c2ccccc21`, the IC50 was > 40 µM (inactive).
As for `CCOC(=O)C1CCN(Cc2cc(=O)oc3cc(O)c(O)cc23)CC1`, the 50% inhibitory concentration (IC50) is 1.29 µM.
With `Cc1[nH]c2ccc(F)cc2c(=O)c1CN1CCCCC1`, the IC50 is > 40 µM (inactive).
For `CCCN1CCN(C(=O)Cn2c(C)ccc(NC(=O)c3ccccc3)c2=O)CC1`, the IC50 was > 40 µM (inactive).
As to `COc1ccc(C(=O)Nc2nc(-c3ccc4c(c3)NC(=O)CO4)c(C)s2)cc1OC`, the IC50 was > 40 µM (inactive).
Under `CCOc1ccc(CC(=O)Nc2ccc(-c3cn4cccnc4n3)cc2)cc1` stands > 40 µM (inactive).
The result for `Cc1nc2c(c(C)c1CCC(=O)Nc1ccccc1F)c(=O)n(C)c(=O)n2C` reads > 40 µM (inactive); that for `O=C(Nc1ccccc1F)c1nc(-c2cn(-c3ccc(F)cc3)nn2)no1`, 22.4 µM; that for `Cc1cc(C)cc(NC(=O)C2CC(=O)Nc3nc4ccccc4n32)c1` (centres undefined), > 40 µM (inactive).
As for `COc1ccccc1Nc1ncc(C(=O)NCc2ccc(F)cc2)c2ccccc12`, the IC50 was > 40 µM (inactive).
As to `N#Cc1cccc(NC(=O)Cn2cccc2-c2nc(-c3ccccc3)no2)c1`, the IC50 was > 40 µM (inactive).
Regarding `O=C(CSc1nc(=O)n(Cc2ccncc2)c2c1CCC2)NCCc1ccccc1`, the IC50 was > 40 µM (inactive).
For `COC(=O)c1ccc2c(=O)n(-c3ccc(C)c(F)c3)c(N3CCC(C(N)=O)CC3)nc2c1`, the IC50 was > 40 µM (inactive).
In the case of `O=C(CCSc1nnnn1-c1ccccc1)Nc1cc(C(F)(F)F)ccc1Cl`, the IC50 was > 40 µM (inactive).
Regarding `CCOc1ccc(-c2nc(SCC(=O)Nc3cccc(C)c3)n3[nH]c(=O)cc3n2)cc1`, the IC50 was > 40 µM (inactive).
As to `CCc1cc(=O)oc2c(C)c(OCC(=O)NCc3ccccn3)ccc12`, the IC50 is > 40 µM (inactive).
Consider `O=C1c2c(O)cccc2C2(Oc3cccc4cccc(c34)O2)C2OC12` (centres undefined), for which the concentration for half-maximal inhibition (IC50) is 7.76 µM.
Regarding `CCc1ccccc1NC(=O)CN1C(=O)C2CCCC2=Nc2ccccc21` (centres undefined), the IC50 is > 40 µM (inactive).
For `O=C(NC1CCCCC1)C(c1ccc(F)cc1)N(C(=O)C1COc2ccccc2O1)c1ccc2c(c1)OCO2` (centres undefined), the IC50 was > 40 µM (inactive).
As to `COc1ccc(-n2c(=O)c3ccc(C(=O)NCCc4ccccc4)cc3n(CC(=O)NCc3ccco3)c2=O)cc1`, the IC50 was > 40 µM (inactive).
Consider `Cc1sc(NC(=O)c2ccc(S(=O)(=O)N(C)Cc3ccccc3)cc2)c(C(N)=O)c1C`, for which the IC50 is > 40 µM (inactive).
Turning to `CC(OC(=O)c1cc(S(=O)(=O)Nc2ccccc2F)ccc1Cl)C(=O)Nc1ccc([N+](=O)[O-])cc1C(F)(F)F` (centres undefined), the IC50 was > 40 µM (inactive).
Under `Cc1nc(SCC(=O)NC(C)c2ccccc2)c2oc3ccccc3c2n1` (centres undefined) stands > 40 µM (inactive).
Take `CCOc1ccc(S(=O)(=O)Nc2ccc[nH]c2=O)cc1`: the IC50 was > 40 µM (inactive).
Consider `COc1cccc(NC(=O)c2cn(-c3cc(N4CCCC4)ncn3)cn2)c1`, for which the IC50 is > 40 µM (inactive).
With `COC(=O)c1ccc2c(=O)n(CCCCCC(=O)NCc3cccc(Cl)c3)c(=O)[nH]c2c1`, the IC50 was > 40 µM (inactive).
As for `COc1cccc(CNC(=O)c2nnn(CC(=O)Nc3cc(C)ccc3C)c2N)c1`, the IC50 is > 40 µM (inactive).
Under `Cc1ccc(C)c(S(=O)(=O)N2CCN(c3ccc4nnc(-c5ccco5)n4n3)CC2)c1` stands > 40 µM (inactive); under `COc1ccccc1C(=O)Nc1ccc(Oc2ncnc3sc(-c4ccccc4)cc23)cc1`, > 40 µM (inactive); under `C/C(=C\Cc1c(O)cc(C)c(C=O)c1O)CC[C@@]1(C)[C@H](C)CCC(=O)[C@@H]1C`, > 40 µM (inactive).
As to `O=c1[nH]c(C2CCN(S(=O)(=O)c3ccc(S(=O)(=O)NC4CC4)cc3)CC2)nc2c1nnn2Cc1c(Cl)cccc1Cl`, the IC50 was > 40 µM (inactive).
For the compound `COc1ccc(-c2nc3n(n2)C(CC(=O)Nc2cccc4ccccc24)C(=O)N3)cc1` (centres undefined), the IC50 is > 40 µM (inactive).
The result for `CSc1nc(NCc2ccccc2)c2sc3nc(N4CCOCC4)c4c(c3c2n1)CC(C)(C)OC4` reads > 40 µM (inactive); that for `Cc1ccc(C(=O)c2cn(CC(=O)Nc3ccc(F)c(F)c3)c3ccc(F)cc3c2=O)cc1`, > 40 µM (inactive); that for `COc1ccc(-c2nc(-c3nnn(Cc4ccc(F)cc4)c3C)no2)c(OC)c1`, > 40 µM (inactive).
The result for `Nc1c(C(=O)NCc2ccc3c(c2)OCO3)nnn1Cc1ccc(Br)cc1F` reads > 40 µM (inactive); that for `Cc1ccc(C2=Nc3ccccc3N(CC(=O)Nc3cccc(C)c3C)C(=O)C2)cc1C`, > 40 µM (inactive).
On to `COC(=O)c1ccc(Cn2nnc3c(=O)[nH]c(C4CCCN(S(=O)(=O)c5ccc(C)cc5)C4)nc32)cc1` (centres undefined), for which the IC50 was > 40 µM (inactive).
For the compound `Cc1cc(C)c(C#N)c(N2CCN(CCOc3ccc(Cl)cc3)CC2)n1`, the IC50 was > 40 µM (inactive).
As for `CCc1nnc(C(=O)Nc2ccc(C(=O)NCc3ccc(OC(C)C)cc3)cc2)s1`, the IC50 is > 40 µM (inactive).
For `COc1ccc(C(=O)NC(Cc2ccccc2)c2nc3ccccc3[nH]2)c(OC)c1` (centres undefined), the 50% inhibitory concentration (IC50) was 9.44 µM.
Regarding `Cc1ccc(NC(=O)Cc2sc(Nc3ccc(C)cc3)nc2O)cc1`, the IC50 was > 40 µM (inactive).
As to `CC(C)CC(=O)Nc1cc(F)c2nc(N3CCOCC3)ccc2c1`, the IC50 is > 40 µM (inactive).
Take `O=C(CCn1c(=O)c2ccccc2n(Cc2ccccc2F)c1=O)NCc1ccco1`: the IC50 was > 40 µM (inactive).
As for `CC(=O)c1ccc(NC(=O)C2CC(=O)Nc3nc(SCc4ccccc4)nn32)cc1` (centres undefined), the IC50 was > 40 µM (inactive).
In the case of `CCn1c(CNC(=O)c2cccc(C)c2)nnc1SCC(=O)N1CCc2ccccc21`, the IC50 was > 40 µM (inactive).
Under `CC(=O)c1ccc(NC(=O)CSc2nc(-c3ccccc3)nc3c2COC(C)(C)C3)cc1` stands > 40 µM (inactive); under `Cc1ccc(NC(=O)Cn2c(=O)n(CCC(=O)NCCc3ccccc3)c(=O)c3ccccc32)cc1C`, > 40 µM (inactive).
With `Cc1ccc(NC(=O)c2ccc3nn(CC(=O)Nc4ccc(C)cc4C)c(=O)n3c2)cc1`, the IC50 is > 40 µM (inactive).
In the case of `COc1ccc(Cl)cc1C(=O)NNC(=O)c1cc(-c2ccccc2)n[nH]1`, the IC50 is > 40 µM (inactive).
In the case of `O=c1[nH]c(C2CCN(S(=O)(=O)c3ccc(S(=O)(=O)NC4CCCCC4)cc3)CC2)nc2c1nnn2Cc1c(F)cccc1Cl`, the IC50 was > 40 µM (inactive).
With `COc1ccc(CC(=O)Nc2ccccc2-c2nc3ccccc3[nH]2)cc1OC`, the IC50 is > 40 µM (inactive).

(Values after PubChem BioAssay AID1645862 (Buhrlage Lab, Dana-Farber Cancer Institute and Novartis …, 2021).)
